One data set has as its system Boophilus microplus. The experiment in a line: Boophilus microplus test (BOOPMI injection). The class given is in vivo. To be noted: for % Activity dat: BOOPMI injection, 7 dat. The protocol:
Boophilus microplus Test (BOOPMI Injection)
(§1) Solvent: dimethyl sulphoxide
The active compound solution is injected into the abdomen (Boophilus microplus), and the animals are transferred into dishes and stored in a climate-controlled room. The activity is assessed by laying of fertile eggs.
The active compound solution is injected into the abdomen (Boophilus microplus), and the animals are transferred into dishes and stored in a climate-controlled room.
The activity is assessed by laying of fertile eggs. 100% means that none of the ticks has laid any fertile eggs.

The subject of data set [1] is Phaedon cochleariae. The data set is described as follows: Phaedon test (PHAECO spray treatment), Chinese cabbage leaf discs.
Data set [2] concerns Tetranychus urticae. The experiment in a line: Tetranychus test, OP-resistant (TETRUR spray treatment), bean leaf discs. It is filed as in vivo. Particulars: application rate 500 g/ha; after 6 days. The protocol:
Tetranychus Test, OP-Resistant (TETRUR Spray Treatment)
After a time of 6 days, the efficacy in % is determined.

The test system of data set [3] is Tetranychus urticae. The experiment in a line: Tetranychus urticae spray test, OP-resistant (TETRUR), bean plants, ppm. The class given is in vivo. Particulars: 168 h, 7 dat. An excerpt: Tetranychus urticae Spray Test, OP-Resistant (TETRUR)
(§2) Solvent: 7 parts by weight of dimethylformamide
(§3) Emulsifier: 2 parts by weight of alkylaryl polyglycol ether
(§4) If the addition of ammonium salts or/and penetrants is required, these are in each case added in a concentration of 1000 ppm to the solution of the preparation.

Data set [4] in a line: log P by HPLC, EEC Directive 79/831 Annex V.A8, method a). To be noted: reversed-phase C18 HPLC column; cell marked a): HPLC, reversed-phase C18, acetonitrile/water with formic acid, gradient 10% to 95% acetonitrile. It is filed as physicochemical. A digest of the protocol: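 Reversed-phase C18 HPLC (50*4.6, 1.8 micron) per EEC Directive 79/831 Annex V.A8, acetonitrile/water with formic acid, gradient 10% to 95% acetonitrile over 4.25 min then 1.25 min hold; 55° C, 2.0 ml/min, with MS detection.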

The test system of data set [5] is Spodoptera frugiperda. The experiment in a line: Spodoptera frugiperda spray test (SPODFR), cotton leaves, ppm. The class given is in vivo. To be noted: 168 h, 7 dat.
Excerpt: Spodoptera frugiperda Spray Test (SPODFR)
as §2, §3, §4
Cotton leaves (Gossypium hirsutum) are sprayed with an active compound formulation of the desired concentration and populated with caterpillars of the armyworm (Spodoptera frugiperda).

The next data set relates to Lucilia cuprina larvae. The data set is described as follows: Lucilia cuprina test (LUCICU). It is filed as in vivo. Particulars: 100 ppm; after 2 days. The protocol:
Lucilia cuprina Test (LUCICU)
as §1
Vessels containing horse meat treated with the active compound preparation of the desired concentration are populated with about 20 Lucilia cuprina larvae.
(§5) After 2 days, the kill in % is determined.

The subject of data set [6] is Spodoptera frugiperda. The data set is described as follows: Spodoptera frugiperda test (SPODFR spray treatment), maize leaf discs. To be noted: application rate 500 g/ha; after 7 days. The class given is in vivo. An excerpt: Spodoptera frugiperda Test (SPODFR Spray Treatment)
The test system of a further data set is Musca domestica. The experiment in a line: Musca domestica test (MUSCDO). It is filed as in vivo. The protocol:
Musca domestica Test (MUSCDO)
as §1
Vessels containing a sponge treated with the active compound preparation of the desired concentration are populated with adult Musca domestica.
as §5
Vessels containing a sponge treated with the active compound formulation of the desired concentration are populated with adult Musca domestica.
After the desired period of time, the kill in % is determined.

The test system of a further data set is Ctenocephalides felis. The experiment in a line: Ctenocephalides felis oral (CTECFE). It is filed as in vivo. The method, then:
Ctenocephalides felis Oral (CTECFE)
Solvent: 1 part by weight of dimethyl sulphoxide
For the purpose of producing a suitable preparation of active compound, 10 mg of active compound are mixed with 0.5 ml of dimethyl sulphoxide. A portion of the concentrate is diluted with citrated cattle blood, and the desired concentration is prepared.
About 20 unfed adult fleas (Ctenocephalides felis) are placed into a chamber which is closed at the top and bottom with gauze. A metal cylinder whose bottom end is closed with parafilm is placed onto the chamber. The cylinder contains the blood/active compound preparation, which can be taken up by the fleas through the parafilm membrane. After 2 days, the kill in % is determined.
For the purpose of preparing an appropriate active compound formulation, 10 mg of active compound are mixed with 0.5 ml of dimethyl sulphoxide. A portion of the concentrate is diluted with citrated cattle blood, and the desired concentration is prepared.
About 20 unfed adult fleas (Ctenocephalides felis) are placed into a chamber which is closed at the top and bottom with gauze. A metal cylinder whose bottom end is closed with parafilm is placed onto the chamber. The cylinder contains the blood/active compound preparation, which can be taken up by the fleas through the parafilm membrane.

The subject of a further data set is Plutella xylostella. The data set is described as follows: Plutella xylostella spray test (PLUTMA). It is filed as in vivo. Particulars: 168 h, 7 dat.
Excerpt: Plutella xylostella Spray Test (PLUTMA)
as §2, §3, §4

In data set [7] the test system is Boophilus microplus females of the SP-resistant Parkhurst strain. The data set is described as follows: Boophilus microplus test (DIP). It is filed as in vivo. The method, then: Boophilus microplus Test (DIP)
Test animals: adult engorged Boophilus microplus females of the SP-resistant Parkhurst strain
as §1
10 mg of active compound are dissolved in 0.5 ml of dimethyl sulphoxide. For the purpose of preparing a suitable formulation, the active compound solution is diluted with water to the concentration desired in each case.
This active compound preparation is pipetted into tubes. 8-10 ticks are transferred into a further tube with holes. The tube is immersed into the active compound formulation, and all ticks are completely wetted. After the liquid has rum off, the ticks are transferred to filter discs in plastic dishes and kept in a climatized room. The activity is assessed after 7 days by laying of fertile eggs. Eggs whose fertility is not outwardly visible are stored in glass tubes in a climate-controlled cabinet until the larvae hatch. An efficacy of 100% means that none of the ticks has laid any fertile eggs.
10 mg of active compound are dissolved in 0.5 ml of dimethyl sulphoxide. For the purpose of preparing a suitable formulation, the active compound solution is diluted with water to the concentration desired in each case (in ppm).
This active compound preparation is pipetted into tubes. 8-10 ticks are transferred into a further tube with holes. The tube is immersed into the active compound formulation, and all ticks are completely wetted. After the liquid has run out, the ticks are transferred onto filter discs in plastic dishes and stored in a climate-controlled room.
The activity is assessed after the desired time by laying of fertile eggs. Eggs whose fertility is not evident from the outside are kept in glass tubes in a climate-controlled cabinet until the larvae have hatched. An effect of 100% means that none of the ticks has laid any fertile eggs.

The next data set deals with Myzus persicae. The experiment in a line: Myzus test (MYZUPE spray treatment). It is filed as in vivo. The protocol:
Myzus test (Myzupe spray treatment)
After 6 days, the efficacy in % is determined.
Myzus Test (MYZUPE Spray Treatment)

In data set [8] the test system is Phaedon cochleariae. The experiment in a line: Phaedon cochleariae spray test (PHAECO), cabbage leaves, ppm. The class given is in vivo. To be noted: 168 h, 7 dat.
Excerpt: Phaedon cochleariae Spray Test (PHAECO)
as §2, §3, §4

In the next data set the test system is Nilaparvata lugens. The data set is described as follows: Nilaparvata lugens spray test (NILALU). The class given is in vivo. To be noted: 168 h, 7 dat.
Excerpt: Nilaparvata lugens Spray Test (NILALU)
as §4

Data set [9] concerns Frankliniella occidentalis. The data set is described as follows: Frankliniella occidentalis spray test (FRANOC). Particulars: 168 h, 500 g/ha, 7 dat. The class given is in vivo.
Excerpt: Frankliniella occidentalis Spray Test (FRANOC)
as §4

Another data set relates to Heliothis armigera. The data set is described as follows: Heliothis armigera spray test (HELIAR). It is filed as in vivo. To be noted: Helicoverpa armigera, 168 h, 7 dat.
Excerpt: Heliothis armigera Spray Test (HELIAR)
as §2, §3, §4

Another data set concerns Liriomyza trifolii. The data set is described as follows: Liriomyza trifolii spray test (LIRITR). It is filed as in vivo. Particulars: 168 h, 7 dat.
Excerpt: Liriomyza trifolii Spray Test (LIRITR)
as §4

Where [10] appears, read: Myzus persicae, 144 h, MYZUPE, 6 dat.

We go through four compounds from patent US9126945B2, “N-(3-carbamoylphenly)-1H-pyrazole-5-carboxamide derivatives and the use thereof for controlling animal pests” (BAYER INTELLECTUAL PROPERTY GMBH, priority 2011, dated 2015).

SMILES strings stand for the structures.

Consider `CN(C(=O)c1c(C(F)(F)F)c(C(F)(F)C(F)(F)F)nn1C)c1ccc(Cl)c(C(=O)NC2(C#N)CC2)c1` [Example 8], for which the “efficacy in % (laying of fertile eggs)” value in the data set with Boophilus microplus (20 μg/animal, after 7 days) is given as 100%; in data set [7] (100 ppm, after 7 days) it was 100%. Moreover, in the data set on Boophilus microplus (0.032 μg/animal), the “% Activity dat” value was 100%. Besides, the efficacy in % in the data set on Phaedon cochleariae [1] (application rate 500 g/ha, after 7 days) is 100%; in the data set with Tetranychus urticae [2], 100%; with Spodoptera frugiperda [6] it was 100%; in the data set with Myzus persicae (application rate 500 g/ha, after 6 days), 100%. The compound also came in with an inhibition at 4 ppm in the data set with Tetranychus urticae [3] (4 ppm) of 95%. The chromatographic logP in [4] turned out to be 3.21. Besides, the inhibition at 20 ppm in the data set with Spodoptera frugiperda [5] was determined as 100%; in the data set with Plutella xylostella, 100%; in data set [7] (Rhipicephalus microplus, 168 h, BOOPMI DIP, 20 ppm, 7 dat) it was 100%. Also, the “kill in % (efficacy)” value came to 100% in the data set on Lucilia cuprina larvae and 100% in the data set with Musca domestica (100 ppm, after 2 days). Moreover, the “kill in % (effect)” value with Ctenocephalides felis (100 ppm, after 2 days) is 100%. Moreover, the inhibition at 0.8 ppm with Ctenocephalides felis (Ctenocephalides felis, po, 48 h, CTECFE, 0.8 ppm, 2 dat) came out at 90%; in the data set with Phaedon cochleariae [8] (0.8 ppm), 100%. Further, the inhibition at 100 g/ha with Myzus persicae (setting [10]) is 100%.

Regarding `Cn1nc(C(F)(F)C(F)(F)F)c(C(F)(F)F)c1C(=O)Nc1ccc(Cl)c(C(=O)NC2CC2c2ccccc2)c1` (centres unmarked) [Ik-47], the “% Activity dat” value with Boophilus microplus (0.8 μg/animal) is on record as 50%. Further, the inhibition at 20 g/ha with Phaedon cochleariae [1] (Phaedon cochleariae, in Brassica rapa, foliar, 168 h, read-out: % Activity dat) turned out to be 0%. The inhibition at 20 ppm amounted to 30% with Tetranychus urticae [3] (20 ppm); 0% in the data set on Spodoptera frugiperda [5]; 0% in the data set with Heliothis armigera (20 ppm); 50% in the data set on Ctenocephalides felis (Ctenocephalides felis, po, 48 h, CTECFE, 20 ppm, 2 dat); 0% in the data set with Plutella xylostella. Moreover, the inhibition at 500 g/ha in the data set with Nilaparvata lugens is 0%; in data set [9], 0%; in the data set with Myzus persicae (Myzus persicae, 144 h, MYZUPE, 500 g/ha, 6 dat) it was 0%. The compound further gave an inhibition at 100 ppm in the data set with Musca domestica (Musca domestica, 48 h, MUSCDO, 2 dat) of 0%.

For `C[C@@H]1C[C@H]1NC(=O)c1cc(NC(=O)c2c(C(F)(F)F)c(C(F)(F)C(F)(F)F)nn2C)ccc1Cl` [Ik-280], the inhibition at 20 ppm was 40% in the data set with Spodoptera frugiperda [5] and 65% in the data set with Plutella xylostella. The compound also returned an inhibition at 100 g/ha in the data set on Nilaparvata lugens (100 g/ha) of 0%. In addition, the inhibition at 100 ppm in the data set on Heliothis armigera (100 ppm) stood at 0%. In addition, in the data set on Phaedon cochleariae [8] (4 ppm), the inhibition at 4 ppm came out at 0%.

Turning to `Cn1nc(C(F)(F)C(F)(F)F)c(C(F)(F)F)c1C(=O)Nc1ccc(Cl)c(C(=O)NC2(C(F)(F)F)CC2)c1` [Ik-296, reference compound], the inhibition at 500 g/ha in the data set on Liriomyza trifolii turned out to be 0%; in the data set with Nilaparvata lugens, 0%; in data set [9], 60%. In the data set with Myzus persicae (setting [10]), this compound registered an inhibition at 100 g/ha of 0%.

For orientation: chromatographic logP means lipophilicity estimated from chromatographic retention. A higher chromatographic logP goes with a more lipophilic compound.
